US20110021623A1, “SYSTEM AND METHODS OF MELANOMA PREVENTION” (Regents of the University of New Mexico, priority 2006, published 2011)
Read-outs that look alike come from different tables or passages of the source.

Experiments:
[1] = tested on: mouse melanocyte cell line (B16); experiment: Melanocyte survival by trypan blue exclusion after solar simulated UV exposure; type: cell-based; conditions: for Melanocyte survival (viability) in ultraviolet (UV) exposed cells: 20 min solar simulated UV (~15 MEDS), increasing doses of inhibitor after exposure, trypan blue exclusion 24 hours after UV
Method: FIG. 3 is a graph illustrating death of melanocytes with tyrosinase inhibitors applied subsequent to ultraviolet (UV) radiation exposure. The graph illustrates results from a study conducted with mice melanocyte cell line (B16). The mouse melanocyte cell line (B16) was exposed to solar simulated ultraviolet (UV) radiation for 20 minutes. The solar ultraviolet (UV) radiation was simulated using a 300 W Xe solar simulator, equivalent to approximately 15 Minimal Erythemal Doses (MEDS), or equivalent to strong sunburn. After ultraviolet (UV) radiation exposure, cells were treated with increasing doses of the following tyrosinase inhibitors: kojic acid (shown in FIG. 3A) and methyl gentisate (shown in FIG. 3B). Melanocyte survival was determined by trypan blue exclusion 24 hours after ultraviolet (UV) radiation exposure. It was shown that there was no effect of tyrosinase inhibitors on the survival in non-ultraviolet (UV) exposed cells (not shown in FIG. 3). […] Preventing quinones from passing out of the melanosome substantially protects melanocytes from DNA damage.

[2] = tested on: mouse melanocyte cell line (B16); experiment: DNA adduct assay (13C tyrosine enrichment, isotope ratio mass spectrometry); type: cell-based; conditions: B16 cells, 300 μM PTU immediately after 20 min full spectrum UV, 5 μM 13C tyrosine 1 hour after UV, DNA isolated after 4 hours
Method: FIG. 4 is a graph illustrating a DNA adduct assay. Mouse melanocyte cell line (B16) was incubated with 300 μM phenylthiourea (PTU) immediately after ultraviolet (UV) radiation exposure. After 20 minutes of full spectrum ultraviolet (UV) radiation exposure, 5 μM ^13C tyrosine was added 1 hour after ultraviolet (UV) radiation exposure. After 4 hours, DNA was isolated and adducts determined as an increase in ^13C enrichment over baseline after combustion and isotope ratio mass spectrometry.

| Compound | Melanocyte survival in non-ultraviolet (UV) exposed cells [1] | Melanocyte survival (viability) in ultraviolet (UV) exposed cells ([1]; B16 cells) | DNA adducts (13C enrichment over baseline, delta value) [2] | Melanocyte survival in non-ultraviolet (UV) exposed cells ([1]; B16 cells, no UV exposure, trypan blue exclusion) |
| --- | --- | --- | --- | --- |
| COC(=O)c1cc(O)ccc1O [methyl gentisate] | no effect | dose dependent increase in viability |  |  |
| NC(=S)Nc1ccccc1 [PTU, phenylthiourea] |  |  | greatly decreases DNA adducts |  |
| O=c1cc(CO)occ1O [kojic acid] |  | dose dependent increase in viability |  | no effect |
